Experiment: Repeated-treatment efficacy for removing an intravenous dose of 238Pu (excretion, tissue retention, clinical observations), female and male arms
Assay type: in vivo, Swiss-Webster mice
Details: male mice; for 238Pu percent increase in excretion, Total Excretion / 238Pu percent increase in excretion, Total Feces / 238Pu percent increase in excretion, Total Urine: over untreated control group; for ^238Pu percent tissue reduction, GI Trace / ^238Pu percent tissue reduction, Kidney / ^238Pu percent tissue reduction, Liver / ^238Pu percent tissue reduction, Soft Tissue / ^238Pu percent tissue reduction, Total Body / ^238Pu percent tissue reduction, Total Bone / ^238Pu percent tissue reduction, GI Tract: vs untreated control group
Method: The objective of this study was to characterize the efficacy of 3,4,3-L1(1,2-HOPO) at enhancing elimination from an internal plutonium burden in female and male Swiss-Webster mice administered a soluble citrate complex of ^238Pu and treated multiple times, starting at 24 hours after the exposure. Efficacy was evaluated by comparing the tissue contents, urinary and fecal excretions of ^238Pu in treated animals versus untreated animals.
The medical countermeasure 3,4,3-L1(1,2-HOPO) was administered parenterally (ip) or orally (po) via consecutive injections or gavages (six daily or twelve twice daily) starting at 24 hours post contamination at the following four selected doses: 30 μmol/kg ip, 150 μmol/kg po, 300 μmol/kg po, and 600 μmol/kg po (equivalent to respective approximate human doses range of […], using the accepted conversion system of mouse doses into human equivalent doses—HED—based on body surface area). Oral doses also included the permeability enhancer selected during formulation development work.
• Challenge isotope: ^238Pu • Challenge dose: 25 nCi (i.e., approximately 0.8 μCi/kg) • Route of contamination: Intravenous (iv) tail-vein • Route of treatment: Intraperitoneal Injection (ip) or Oral (po) • Frequency of treatment: Multiple (once- or twice-daily for 6 days) doses, starting 24 hr postcontamination • Treatment dose calculation: Dose calculations (mg/kg or μmol/kg) for the decorporation agent were based on the individual body weight measured after contamination. • Study Duration: 11 days, in-life
c. […] Test article and control dose formulations were prepared within 1 day of dose administration, by weighing out the appropriate amount of test article, dispersing in vehicle. For ip solutions, the test article was used alone, while for oral suspensions, a mixture of test article and excipient (90:10, w:w) was used. The pH was adjusted to 7.0-7.4 for ip administration and 5.0-5.5 for oral administration with sterile NaOH. Dose formulations were prepared at room temperature and filter-sterilized. • Storage: 2-8° C.; refrigerated; protected from light. • Characterization: The concentration of each test article formulation was verified by high-performance liquid chromatography-mass spectrometry. • Test Article Handling: Test, reference, and control article formulations were handled with the use of eye protection, gloves, and a protective laboratory coat. • Correct Dose Assurance: The test article was weighed with calibrated balances. The administration of each dose formulation was properly documented, and the amount administered to each animal recorded.
e. Experimental Procedures (In-Life Evaluations and Euthanasia) • Contamination: Single administration by intravenous (iv) tail-vein injection (0.2 mL injection volume) under isoflurane anesthesia. Three standard 0.2 mL injections were performed into polyethylene bottles and pre-loaded with aliquots of concentrated nitric acid on each injection day. Six female and six male mice were culled for necropsy 1 hr post-contamination and were used as standards. A11 standards were processed and counted together with the final samples to allow verification of the contamination dose. • Dose Administration: Single administration by intraperitoneal injection (ip) or oral gavage (po) under isoflurane anesthesia. • Mortality/Morbidity: Assessed at least once daily. • Clinical Observations: Recorded once daily (4 hr post-dose on day of treatment), or more often as clinical signs warranted. […]

[1] = 30 μmol/kg, IP, 11-day necropsy
[2] = 150 μmol/kg, 2 doses PO, 7-day necropsy
[3] = 300 μmol/kg, 1 dose PO, 7-day necropsy
[4] = 300 μmol/kg, 1 dose PO, 11-day necropsy
[5] = 300 μmol/kg, 2 doses PO, 7-day necropsy
[6] = 300 μmol/kg, PO, 11-day necropsy
[7] = 600 μmol/kg, 1 dose PO, 7-day necropsy
[8] = 600 μmol/kg, 1 dose PO, 11-day necropsy
[9] = 600 μmol/kg, PO, 11-day necropsy
[10] = 600 μmol/kg, dose PO, 7-day necropsy

O=C(NCCCN(CCCCN(CCCNC(=O)c1cccc(=O)n1O)C(=O)c1cccc(=O)n1O)C(=O)c1cccc(=O)n1O)c1cccc(=O)n1O [Formulation 343]
^238Pu excretion, Total Excretion, Avg [1]: 79.89 percent recovered dose | ^238Pu excretion, Total Feces, Avg [1]: 48.24 percent recovered dose | ^238Pu excretion, Total Urine, Avg [1]: 31.65 percent recovered dose | ^238Pu retention, GI Tract, Avg [1]: 0.53 percent recovered dose | ^238Pu retention, Kidney, Avg [1]: 0.12 percent recovered dose | ^238Pu retention, Liver, Avg [1]: 2.42 percent recovered dose | ^238Pu retention, Soft Tissue, Avg [1]: 1.14 percent recovered dose | ^238Pu retention, Total Body, Avg [1]: 20.11 percent recovered dose | ^238Pu retention, Total Bone, Avg [1]: 15.90 percent recovered dose | 238Pu percent increase in excretion, Total Excretion [1]: 168.28% | 238Pu percent increase in excretion, Total Feces [1]: 188.96% | 238Pu percent increase in excretion, Total Urine [1]: 144.22% | ^238Pu percent tissue reduction, GI Trace [1]: 72.95% | ^238Pu percent tissue reduction, Kidney [1]: 65.35% | ^238Pu percent tissue reduction, Liver [1]: 85.55% | ^238Pu percent tissue reduction, Soft Tissue [1]: 67.92% | ^238Pu percent tissue reduction, Total Body [1]: 61.72% | ^238Pu percent tissue reduction, Total Bone [1]: 46.83% | ^238Pu excretion, Total Excretion, Avg [2]: 53.58 percent recovered dose | ^238Pu excretion, Total Feces, Avg [2]: 30.26 percent recovered dose | ^238Pu excretion, Total Urine, Avg [2]: 23.32 percent recovered dose | ^238Pu retention, GI Tract, Avg [2]: 1.67 percent recovered dose | ^238Pu retention, Kidney, Avg [2]: 0.31 percent recovered dose | ^238Pu retention, Liver, Avg [2]: 21.40 percent recovered dose | ^238Pu retention, Soft Tissue, Avg [2]: 3.16 percent recovered dose | ^238Pu retention, Total Body, Avg [2]: 46.42 percent recovered dose | ^238Pu retention, Total Bone, Avg [2]: 19.87 percent recovered dose | 238Pu percent increase in excretion, Total Excretion [2]: 149.61% | 238Pu percent increase in excretion, Total Feces [2]: 174.63% | 238Pu percent increase in excretion, Total Urine [2]: 126.15% | ^238Pu percent tissue reduction, GI Tract [2]: −17.71% | ^238Pu percent tissue reduction, Kidney [2]: −4.19% | ^238Pu percent tissue reduction, Liver [2]: 18.09% | ^238Pu percent tissue reduction, Soft Tissue [2]: −5.31% | ^238Pu percent tissue reduction, Total Body [2]: 27.68% | ^238Pu percent tissue reduction, Total Bone [2]: 40.39% | ^238Pu excretion, Total Excretion, Avg [3]: 64.11 percent recovered dose | ^238Pu excretion, Total Feces, Avg [3]: 40.12 percent recovered dose | ^238Pu excretion, Total Urine, Avg [3]: 24.00 percent recovered dose | ^238Pu retention, GI Tract, Avg [3]: 1.23 percent recovered dose | ^238Pu retention, Kidney, Avg [3]: 0.17 percent recovered dose | ^238Pu retention, Liver, Avg [3]: 12.68 percent recovered dose | ^238Pu retention, Soft Tissue, Avg [3]: 1.75 percent recovered dose | ^238Pu retention, Total Body, Avg [3]: 35.89 percent recovered dose | ^238Pu retention, Total Bone, Avg [3]: 20.06 percent recovered dose | 238Pu percent increase in excretion, Total Excretion [3]: 162.02% | 238Pu percent increase in excretion, Total Feces [3]: 225.83% | 238Pu percent increase in excretion, Total Urine [3]: 110.04% | ^238Pu percent tissue reduction, GI Tract [3]: 21.76% | ^238Pu percent tissue reduction, Kidney [3]: 40.67% | ^238Pu percent tissue reduction, Liver [3]: 43.47% | ^238Pu percent tissue reduction, Soft Tissue [3]: 34.62% | ^238Pu percent tissue reduction, Total Body [3]: 40.61% | ^238Pu percent tissue reduction, Total Bone [3]: 40.06% | ^238Pu retention, GI Tract, Avg [4]: 1.03 percent recovered dose | ^238Pu retention, Kidney, Avg [4]: 0.15 percent recovered dose | ^238Pu retention, Liver, Avg [4]: 9.46 percent recovered dose | ^238Pu retention, Soft Tissue, Avg [4]: 2.20 percent recovered dose | ^238Pu retention, Total Body, Avg [4]: 33.83 percent recovered dose | ^238Pu retention, Total Bone, Avg [4]: 20.99 percent recovered dose | ^238Pu percent tissue reduction, GI Trace [4]: 30.01% | ^238Pu percent tissue reduction, Kidney [4]: 45.60% | ^238Pu percent tissue reduction, Liver [4]: 48.32% | ^238Pu percent tissue reduction, Soft Tissue [4]: 22.51% | ^238Pu percent tissue reduction, Total Body [4]: 36.96% | ^238Pu percent tissue reduction, Total Bone [4]: 30.34% | ^238Pu excretion, Total Excretion, Avg [5]: 59.71 percent recovered dose | ^238Pu excretion, Total Feces, Avg [5]: 34.14 percent recovered dose | ^238Pu excretion, Total Urine, Avg [5]: 25.57 percent recovered dose | ^238Pu retention, GI Tract, Avg [5]: 1.45 percent recovered dose | ^238Pu retention, Kidney, Avg [5]: 0.18 percent recovered dose | ^238Pu retention, Liver, Avg [5]: 15.12 percent recovered dose | ^238Pu retention, Soft Tissue, Avg [5]: 2.41 percent recovered dose | ^238Pu retention, Total Body, Avg [5]: 40.29 percent recovered dose | ^238Pu retention, Total Bone, Avg [5]: 21.12 percent recovered dose | 238Pu percent increase in excretion, Total Excretion [5]: 166.71% | 238Pu percent increase in excretion, Total Feces [5]: 197.01% | 238Pu percent increase in excretion, Total Urine [5]: 138.32% | ^238Pu percent tissue reduction, GI Tract [5]: −2.24% | ^238Pu percent tissue reduction, Kidney [5]: 39.84% | ^238Pu percent tissue reduction, Liver [5]: 42.11% | ^238Pu percent tissue reduction, Soft Tissue [5]: 19.73% | ^238Pu percent tissue reduction, Total Body [5]: 37.23% | ^238Pu percent tissue reduction, Total Bone [5]: 36.64% | ^238Pu excretion, Total Excretion, Avg [6]: 66.17 percent recovered dose | ^238Pu excretion, Total Feces, Avg [6]: 40.33 percent recovered dose | ^238Pu excretion, Total Urine, Avg [6]: 25.84 percent recovered dose | 238Pu percent increase in excretion, Total Excretion [6]: 142.80% | 238Pu percent increase in excretion, Total Feces [6]: 180.35% | 238Pu percent increase in excretion, Total Urine [6]: 107.78% | ^238Pu excretion, Total Excretion, Avg [7]: 65.66 percent recovered dose | ^238Pu excretion, Total Feces, Avg [7]: 40.53 percent recovered dose | ^238Pu excretion, Total Urine, Avg [7]: 25.13 percent recovered dose | 238Pu percent increase in excretion, Total Excretion [7]: 165.93% | 238Pu percent increase in excretion, Total Feces [7]: 228.14% | 238Pu percent increase in excretion, Total Urine [7]: 115.25% | ^238Pu percent tissue reduction, GI Tract [7]: −3.93% | ^238Pu percent tissue reduction, Kidney [7]: 11.13% | ^238Pu percent tissue reduction, Liver [7]: 44.57% | ^238Pu percent tissue reduction, Soft Tissue [7]: 17.40% | ^238Pu percent tissue reduction, Total Body [7]: 43.17% | ^238Pu percent tissue reduction, Total Bone [7]: 46.78% | ^238Pu retention, GI Tract, Avg [8]: 0.75 percent recovered dose | ^238Pu retention, Kidney, Avg [8]: 0.19 percent recovered dose | ^238Pu retention, Liver, Avg [8]: 6.78 percent recovered dose | ^238Pu retention, Soft Tissue, Avg [8]: 1.93 percent recovered dose | ^238Pu retention, Total Body, Avg [8]: 27.67 percent recovered dose | ^238Pu retention, Total Bone, Avg [8]: 18.02 percent recovered dose | ^238Pu percent tissue reduction, GI Trace [8]: 49.06% | ^238Pu percent tissue reduction, Kidney [8]: 32.19% | ^238Pu percent tissue reduction, Liver [8]: 62.99% | ^238Pu percent tissue reduction, Soft Tissue [8]: 32.01% | ^238Pu percent tissue reduction, Total Body [8]: 48.44% | ^238Pu percent tissue reduction, Total Bone [8]: 40.18% | ^238Pu excretion, Total Excretion, Avg [9]: 72.33 percent recovered dose | ^238Pu excretion, Total Feces, Avg [9]: 44.91 percent recovered dose | ^238Pu excretion, Total Urine, Avg [9]: 27.43 percent recovered dose | 238Pu percent increase in excretion, Total Excretion [9]: 156.10% | 238Pu percent increase in excretion, Total Feces [9]: 200.32% | 238Pu percent increase in excretion, Total Urine [9]: 114.39% | ^238Pu retention, GI Tract, Avg [10]: 1.63 percent recovered dose | ^238Pu retention, Kidney, Avg [10]: 0.25 percent recovered dose | ^238Pu retention, Liver, Avg [10]: 12.44 percent recovered dose | ^238Pu retention, Soft Tissue, Avg [10]: 2.22 percent recovered dose | ^238Pu retention, Total Body, Avg [10]: 34.34 percent recovered dose | ^238Pu retention, Total Bone, Avg [10]: 17.81 percent recovered dose

— US11684614B2, “Formulations of hydroxypyridonate actinide/lanthanide decorporation agents” (priority 2017, dated 2023)
